Among the data in BindingDB's records for doi:10.1021/jm0492397 (Saarland University, 2005) are IC50 values, retold here.

In general, IC50 refers to the point on the concentration scale where inhibition reaches its midpoint. Read a low IC50 as inhibition by little substance.

In this assay the target is T1, Cytochrome P450 11B1, mitochondrial (Homo sapiens, UniProt P15538).
T1 sequence (P15538 whole entry): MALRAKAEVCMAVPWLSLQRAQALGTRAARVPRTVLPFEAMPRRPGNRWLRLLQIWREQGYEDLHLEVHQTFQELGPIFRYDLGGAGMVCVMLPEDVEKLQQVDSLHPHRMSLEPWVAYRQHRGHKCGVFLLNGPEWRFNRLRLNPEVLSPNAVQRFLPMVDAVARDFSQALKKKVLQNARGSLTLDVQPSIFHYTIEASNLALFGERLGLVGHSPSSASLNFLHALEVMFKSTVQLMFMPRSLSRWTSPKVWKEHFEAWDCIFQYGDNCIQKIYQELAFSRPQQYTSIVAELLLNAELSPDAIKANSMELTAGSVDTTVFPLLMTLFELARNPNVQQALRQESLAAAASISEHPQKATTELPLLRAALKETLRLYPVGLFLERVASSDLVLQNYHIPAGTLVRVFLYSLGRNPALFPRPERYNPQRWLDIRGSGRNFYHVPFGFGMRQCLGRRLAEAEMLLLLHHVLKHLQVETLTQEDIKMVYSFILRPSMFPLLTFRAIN
In words: CYP11B assay. The protocol:
The enzyme activity was assayed by monitoring the conversion of deoxycorticosterone to corticosterone in the presence of inhibitor compounds. The product formation was monitored by HPTLC using a phosphoimager system.
The molecule `Brc1ccc2c(c1)CC/C2=C/c1ccncc1` [4-{[(1Z)-5-bromo-2,3-dihydro-1H-inden-1-ylidene]methyl}pyridine] gave an IC50 of 877 nM.

As for `C(=C1/CCCc2ccccc21)/c1ccncc1` [4-[(E)-3,4-Dihydronaphthalen-1(2H)-ylidenemethyl]pyridine], the midpoint of inhibition, the IC50, lay at 282 nM.

In turn, `Clc1ccc2c(c1)CC/C2=C/c1ccncc1` [4-{[(1Z)-5-chloro-2,3-dihydro-1H-inden-1-ylidene]methyl}pyridine] had a half-inhibitory concentration (IC50) of 1120 nM.

Molecule `C/C(=C1/CCc2cc(F)ccc21)c1cccnc1` [3-{1-[(1E)-5-fluoro-2,3-dihydro-1H-inden-1-ylidene]ethyl}pyridine] had a half-inhibitory concentration (IC50) of 159 nM.
